Among the data in BindingDB's records for doi:10.7270/Q29S1T6B (n/a, 1997) are Ki values, retold here.

In the experiment the target is T1, Type-1 angiotensin II receptor B (Rattus norvegicus, UniProt P29089).
T1 sequence (P29089 whole entry): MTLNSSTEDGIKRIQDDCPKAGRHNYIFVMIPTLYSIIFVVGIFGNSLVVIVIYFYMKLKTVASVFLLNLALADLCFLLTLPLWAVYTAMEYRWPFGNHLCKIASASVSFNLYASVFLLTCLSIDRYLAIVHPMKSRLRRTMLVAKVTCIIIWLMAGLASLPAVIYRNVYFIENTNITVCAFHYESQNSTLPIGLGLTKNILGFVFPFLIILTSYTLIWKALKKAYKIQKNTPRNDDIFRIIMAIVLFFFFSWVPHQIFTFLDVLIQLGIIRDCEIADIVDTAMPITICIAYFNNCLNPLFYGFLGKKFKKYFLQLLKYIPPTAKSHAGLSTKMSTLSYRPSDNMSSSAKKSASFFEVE
Kind of experiment: Inhibition of binding of [125I]All at the angiotensin II type 1 receptor (AT1 receptor) in rat liver membranes.

`CCc1nn(Cc2ccc(-c3ccccc3-c3nnn[nH]3)cc2)c(=NC(=O)c2ccccc2)s1` [N-[5-Ethyl-3-[2'-(1H-tetrazol-5-yl)-biphenyl-4-ylmethyl]-3H-[1,3,4]thiadiazol-(2Z)-ylidene]-benzamide]: the Ki (in general, the dissociation constant of the complex between target and ligand, obtained from inhibition or displacement) came to 36 nM.

`CCc1nn(Cc2ccc(-c3ccccc3-c3nnn[nH]3)cc2)c(=NC(=O)c2ccccc2C(=O)O)s1` [N-[5-Ethyl-3-[2'-(1H-tetrazol-5-yl)-biphenyl-4-ylmethyl]-3H-[1,3,4]thiadiazol-(2Z)-ylidene]-phthalamic acid] had a Ki of 0.619 nM.

In turn, `CCc1nn(Cc2ccc(-c3ccccc3-c3nnn[nH]3)cc2)c(=NC(=O)c2ccccc2Cl)s1` [2-Chloro-N-[5-ethyl-3-[2'-(1H-tetrazol-5-yl)-biphenyl-4-ylmethyl]-3H-[1,3,4]thiadiazol-(2Z)-ylidene]-benzamide] yielded a Ki of 3.4 nM.
